This note sets out measurements from ChEMBL document CHEMBL1201862, “PubChem BioAssay data set” (2004).

Molecules are shown by their SMILES.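 Briefly, cells in 96-well plates were exposed to five compound concentrations for 48 h, and endpoints were estimated by linear interpolation. Abbreviation: GI50, concentration required for 50% inhibition of growth.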 Activity calls are given as the source filed them. Cut-off read from the data, not from the text of the source: active = GI50 up to about 1.1 µM and inactive = higher.

Among the test systems are 786-0; A498; CCRF-CEM; HCC 2998; HCT-116; HCT-15; HOP-62; Hs-578T; MCF7; MDA-MB-435; MOLT-4; OVCAR-5; OVCAR-8; SF-268; SF-295; SK-MEL-5; SN12C; SNB-75; UACC-257; UO-31.
Common to all, as to assay: NCI anticancer screen, dose series, 48 h

On to `O=C1N[C@@H]([C@H]2CC[C@H](Cl)CN2)C(=O)N[C@H]1[C@H]1CC[C@H](Cl)CN1`, for which the GI50 in the assay with 786-0 was 0.1 µM (active); in the assay on A498 it was 2.63 µM (inactive); in the assay on CCRF-CEM, 0.152 µM (active); in the assay with HCC 2998 it was 0.923 µM (active); in the assay on HCT-116, 0.743 µM (active); in the assay on HCT-15, 1.14 µM. The GI50 in the assay with HOP-62 is 0.28 µM (active); in the assay on Hs-578T it was 5.06 µM (inactive); in the assay with MCF7, 0.195 µM (active); in the assay with MDA-MB-435, 1.06 µM (active); in the assay with MOLT-4, 0.103 µM (active); with OVCAR-5 it was 1.25 µM (inactive). Besides, the GI50 in the assay with OVCAR-8 was 0.853 µM (active); in the assay on SF-268 it was 0.466 µM (active); with SF-295 it was 0.169 µM (active); with SK-MEL-5, 1.21 µM (inactive); with SN12C, 0.243 µM (active); with SNB-75, 0.507 µM (active). In addition, the GI50 is 2.26 µM (inactive) in the assay with UACC-257 and 1.04 µM (active) in the assay with UO-31.

As to `c1ccc(-c2nc(-c3ccccc3)c(-c3ccccc3)[nH]2)cc1`, the GI50 in the assay with 786-0 is 54 µM (inactive); in the assay on A498, > 100 µM (inactive); in the assay with CCRF-CEM, 17 µM (inactive); with HCC 2998, > 100 µM (inactive); in the assay with HCT-116, 71.9 µM (inactive); with HCT-15 it was greater than 100 µM. Also, the GI50 with HOP-62 was > 85.5 µM (inactive); in the assay with Hs-578T, 23.9 µM (inactive); in the assay on MCF7, 70.3 µM (inactive); in the assay with MDA-MB-435 it was > 100 µM (inactive); in the assay with MOLT-4 it was > 35.8 µM (inactive); with OVCAR-5, > 100 µM (inactive). Moreover, the GI50 in the assay on OVCAR-8 was > 66.1 µM (inactive); in the assay with SF-268, 55.2 µM (inactive); in the assay on SF-295 it was > 100 µM (inactive); with SK-MEL-5, > 100 µM (inactive); in the assay on SN12C, > 87.5 µM (inactive); in the assay on SNB-75, 75 µM (inactive). The GI50 with UACC-257 is > 85.5 µM (inactive); with UO-31, > 100 µM (inactive).

For `Cc1cn(C2CC(O)C(COP(=O)(O)OC3CC(n4c[n+]([BH2-]C#N)c5c(=O)[nH]c(N)nc54)OC3CO)O2)c(=O)[nH]c1=O` (stereo not drawn), the GI50 was > 100 µM (inactive) in the assay with 786-0; > 100 µM (inactive) in the assay with A498; > 100 µM (inactive) with CCRF-CEM; > 100 µM (inactive) in the assay on HCC 2998; > 100 µM (inactive) with HCT-116; greater than 100 µM in the assay with HCT-15. For the same molecule, the GI50 with HOP-62, with Hs-578T, in the assay with MCF7, in the assay on MDA-MB-435, with MOLT-4 and with OVCAR-5 was > 100 µM (inactive) throughout. Further, the GI50 in the assay with OVCAR-8, in the assay with SF-268, in the assay on SF-295, in the assay with SK-MEL-5, with SN12C and in the assay on SNB-75 was > 100 µM (inactive) in each case. Besides, the GI50 in the assay on UACC-257 and in the assay with UO-31 was > 100 µM (inactive) each time.

As to `C[C@@H]1C[C@](O)([C@@H](C)Cl)C(=O)O[C@@H]2CCN3CC=C(COC(=O)[C@]1(C)O)[C@H]23`, the GI50 in the assay with 786-0 was > 100 µM (inactive); with A498, > 100 µM (inactive); with CCRF-CEM it was > 10 µM (inactive); in the assay with HCC 2998 it was > 100 µM (inactive); in the assay on HCT-116, > 100 µM (inactive); in the assay with HCT-15, greater than 100 µM. The GI50 in the assay on HOP-62, in the assay on Hs-578T, with MCF7, in the assay with MDA-MB-435, in the assay on OVCAR-5 and in the assay with OVCAR-8 was > 100 µM (inactive) in each case. Besides, the GI50 in the assay with SF-268 was > 100 µM (inactive); with SF-295 it was > 100 µM (inactive); in the assay with SK-MEL-5, > 100 µM (inactive); with SNB-75, > 100 µM (inactive); in the assay with UACC-257, > 100 µM (inactive); in the assay on UO-31 it was > 10 µM (inactive).

For `O=[N+]([O-])c1ccc(N/N=C(\c2ccccc2)c2ccccn2)nc1`, the GI50 was 0.906 µM (active) in the assay with 786-0; > 100 µM (inactive) in the assay on A498; < 0.0218 µM (active) in the assay on CCRF-CEM; 5.46 µM (inactive) with HCC 2998; 0.21 µM (active) in the assay on HCT-116; 0.151 µM in the assay with HCT-15. Besides, the GI50 with HOP-62 was 8.57 µM (inactive); with Hs-578T it was 4.29 µM (inactive); with MCF7 it was < 0.0492 µM (active); in the assay with MDA-MB-435, 7.41 µM (inactive); in the assay with OVCAR-5 it was 14.4 µM (inactive); in the assay on OVCAR-8, 0.914 µM (active). The GI50 in the assay with SF-268 is 2.51 µM (inactive); in the assay on SF-295, 5.32 µM (inactive); with SK-MEL-5, 1.85 µM (inactive); in the assay on SN12C it was 0.429 µM (active); in the assay with SNB-75 it was 7.06 µM (inactive); in the assay with UACC-257, 0.262 µM (active). The GI50 in the assay with UO-31 is 0.817 µM (active).

In the case of `O=C1Nc2ccccc2C1Cc1ccccc1` (stereo not drawn), the GI50 in the assay with 786-0 was > 100 µM (inactive); in the assay with A498 it was > 100 µM (inactive); in the assay on CCRF-CEM, > 100 µM (inactive); with HCC 2998, > 100 µM (inactive); with HCT-116 it was > 100 µM (inactive); in the assay with HCT-15, greater than 100 µM. Moreover, the GI50 with HOP-62, in the assay with Hs-578T, in the assay with MCF7, with MDA-MB-435, with MOLT-4 and in the assay on OVCAR-5 was > 100 µM (inactive) in each case. In addition, the GI50 in the assay on OVCAR-8 was > 100 µM (inactive); with SF-268 it was > 100 µM (inactive); in the assay with SK-MEL-5 it was 43.6 µM (inactive); with SNB-75, 0.296 µM (active); in the assay with UACC-257, > 100 µM (inactive); in the assay with UO-31, 78.5 µM (inactive).

Regarding `Cc1ccc(S(=O)(=O)N(CC(O)COc2ccccc2)c2c(F)c(F)c(F)c(F)c2F)cc1` (stereo not drawn), the GI50 in the assay on 786-0 was 19.5 µM (inactive); in the assay on A498, 17.1 µM (inactive); with CCRF-CEM, < 0.01 µM (active); in the assay with HCC 2998, 17.3 µM (inactive); with HCT-116, 17 µM (inactive); in the assay on HCT-15 it was 16.5 µM. Besides, the GI50 in the assay with HOP-62 is 16.7 µM (inactive); in the assay with Hs-578T it was 18.5 µM (inactive); in the assay on MCF7 it was 10.5 µM (inactive); in the assay on MDA-MB-435, 16.4 µM (inactive); in the assay on MOLT-4, 21.6 µM (inactive); in the assay with OVCAR-5 it was 18.3 µM (inactive). The GI50 is 17.1 µM (inactive) in the assay with OVCAR-8; 14.5 µM (inactive) in the assay with SF-268; 17.1 µM (inactive) in the assay on SF-295; 12.4 µM (inactive) in the assay on SK-MEL-5; 16.6 µM (inactive) in the assay on SN12C; 16.3 µM (inactive) with SNB-75. For the same molecule, the GI50 with UO-31 was 12.6 µM (inactive).

As to `Cc1cn(C2CC(N)C(C(=O)O)O2)c(=O)[nH]c1=O` (stereo not drawn), the GI50 in the assay on 786-0 was > 100 µM (inactive); with A498, > 100 µM (inactive); with CCRF-CEM, > 100 µM (inactive); in the assay on HCC 2998, > 100 µM (inactive); in the assay with HCT-116 it was > 100 µM (inactive); in the assay on HCT-15, greater than 100 µM. The GI50 in the assay on HOP-62, in the assay on Hs-578T, in the assay with MCF7, in the assay with MDA-MB-435, in the assay on MOLT-4 and in the assay on OVCAR-5 was > 100 µM (inactive) in each case. The GI50 in the assay with OVCAR-8, in the assay on SF-268, in the assay with SK-MEL-5, in the assay with SN12C, in the assay on SNB-75 and in the assay with UACC-257 was > 100 µM (inactive) throughout. In the assay with UO-31, the GI50 was > 100 µM (inactive).
